One data set relates to TNF-α release from LPS-stimulated human peripheral blood mononuclear cells. The data set is described as follows: Cell based assay for TNF-α release (LPS stimulation of human PBMNC's). The settings on record: PBMC; human PBMN cells, LPS 1 μg/ml, incubated overnight, ELISA; read-out: IC50, inhibition of TNF-α release. The protocol: Cell based Assay for TNF-α Release
Method of Isolation of Human Peripheral Blood Mononuclear Cells:
Human whole blood was collected in vacutainer tubes containing heparin or EDTA as an anti coagulant. The blood was diluted (1:1) in sterile phosphate buffered saline and 10 ml. was carefully layered over 5 ml Ficoll Hypaque gradient (density 1.077 g/ml) in a 15 ml conical centrifuge tube. The sample was centrifuged at 3000 rpm for 25 minutes in a swing-out rotor at room temperature. After centrifugation, interface of cells were collected, diluted at least 1:5 with PBS and washed three times by centrifugation at 2500 rpm for 10 minutes at room temperature. The cells were resuspended in serum free RPMI 1640 medium at a concentration of 2 million cells/ml. Alternatively whole blood was used.
LPS Stimulation of Human PBMNC's:
PBMN cells (0.1 ml; 2 million/ml) were co-incubated with 20 μl of compound (final DMSO concentration of 0.2%) for 10 min in a flat bottom 96 well microtiter plate. Compounds were dissolved in DMSO initially and diluted in medium for a final concentration of 0.2% DMSO. LPS (1 μg/ml, final concentration) was then added at a volume of 10 μl per well. After 30 min, 20 μl of fetal calf serum (final concentration of 10%) was added to each well. Cultures were incubated overnight at 37° C. in an atmosphere of 5% CO2 and 95% air. Supernatant were then removed and tested by ELISA for TNF-α release using a commercial kit (e.g. BD Biosciences). For whole blood, the plasma samples were diluted 1:20 for ELISA. The level of TNF-α in treated wells was compared with the vehicle treated controls and inhibitory potency of compound was expressed as IC50 values calculated by using Graph pad prism.
In general terms: In an ELISA, binding on a coated surface is turned into a signal by an enzyme label.
Usually IC50 stands for the concentration at which inhibition is half-maximal. `Cc1nn(C2CCCC2)c2cc(C3=NOC(C)(C#N)C3)ccc12` (stereo not shown) [Compound 2, 3-(1-Cyclopentyl-3-methyl-1H-indazol-6-yl)-5-methyl-4,5-dihydroisoxazole-5-carbonitrile]: the IC50 was in the range of 4.2 to 10 µM.
Consider `CCc1nn(C2CCCC2)c2cc(C3=NOC(C)(C#N)C3)ccc12` (stereo not shown) [Compound 3, 3-(1-Cyclopentyl-3-ethyl-1H-indazol-6-yl)-5-methyl-4,5-dihydroisoxazole-5-carbonitrile], for which the concentration for half-maximal inhibition (IC50) is 4.2 to 10 µM.
As to `Cc1nn(C2CCCC2)c2cc(C3=NOC(C)(c4nc(-c5cc(F)ccc5F)no4)C3)ccc12` (stereo not shown) [Compound 23, 1-Cyclopentyl-6-{5-[3-(2,5-difluorophenyl)-1,2,4-oxadiazol-5-yl]-5-methyl-4,5-dihydroisoxazol-3-yl}-3-methyl-1H-indazole], the half-maximal inhibitory concentration (IC50) is 4.2 to 10 µM.
As for `CCc1nn(C2CCCC2)c2cc(C3=NOC(C)(c4nc(-c5cc(Cl)ccc5Cl)no4)C3)ccc12` (stereo not shown) [Compound 31, 1-Cyclopentyl-6-{5-[3-(2,5-dichlorophenyl)-1,2,4-oxadiazol-5-yl]-5-methyl-4,5-dihydroisoxazol-3-yl}-3-ethyl-1H-indazole], the 50% inhibitory concentration (IC50) was in the range of 4.2 to 10 µM.
Still for that read-out and setting: for `CCc1nn(C2CCCC2)c2cc(C3=NOC(C)(c4nc(-c5cc(F)ccc5F)no4)C3)ccc12` (stereo not shown) [Compound 32, 1-Cyclopentyl-6-{5-[3-(2,5-difluorophenyl)-1,2,4-oxadiazol-5-yl]-5-methyl-4,5-dihydroisoxazol-3-yl}-3-ethyl-1H-indazole] the value was 4.2 to 10 µM; for `COc1ccc(C2CNC(=O)C2)cc1OC1CCCC1` (stereo not shown) [rolipram, reference compound], 1.2 µM.

Tested on in a further data set: not given
Test: not given
Conditions: not given
One may read the melting point as the temperature of the solid-liquid transition. Compound `CCc1nn(C2CCCC2)c2cc(C3=NOC(C)(c4noc(-c5ccc(Cl)cc5)n4)C3)ccc12` (stereo not shown) [Compound 11, 6-{5-[5-(4-Chlorophenyl)-1,2,4-oxadiazol-3-yl]-5-methyl-4,5-dihydroisoxazol-3-yl}-1-cyclopentyl-3-ethyl-1H-indazole] registered a melting point of 154 to 155 °C.

(Values after US7781460B2, “Substituted indazoles as inhibitors of phosphodiesterase type-IV” (Ranbaxy Laboratories Limited, priority 2005, dated 2010).)
